Measured values published in US9498513B2, “Antimicrobial bacteria strains and uses thereof” (priority 2010, dated 2016).

Assays:
S. aureus (MRSA) = assay: Antimicrobial activity against susceptible and resistant strains (dilution); type: cell-based, Staphylococcus aureus; conditions: given as dilution ratio; antibiotics 1.28 mg/ml
Protocol: (§1) A concentrated antimicrobial compound (CAC) was prepared as an antimicrobial agent. 2.1 L of an overnight bacterial culture of G346a was centrifuged at 10,000× g for 20 min, and then subject to 0.2 μm filtration. The supernatant was subject to 10-15% TCA precipitation for 1 hour, and then centrifugation at 4,000× for 20 min. The pellet was re-suspended in 3 mL 50 mM NH4HCO3, and then neutralized with 320 μL NH4OH. The resulting concentrated antimicrobial compound (CAC) was tested for its antimicrobial activity against susceptible and resistant strains as shown in TABLE 5.

A. Baumannii (MDR) = assay: as above; type: cell-based, Acinetobacter baumannii; conditions: given as dilution ratio; antibiotics 1.28 mg/ml
Protocol: as §1

Row | Compound | antimicrobial activity S. aureus (MRSA) (S. aureus (MRSA)) | antimicrobial activity A. Baumannii (MDR) (A. Baumannii (MDR))
1 | CC1(C)S[C@@H]2[C@H](NC(=O)[C@H](N)c3ccccc3)C(=O)N2[C@H]1C(=O)O [Ampicillin] | No | No Inhibition
2 | CC1(C)S[C@@H]2[C@H](NC(=O)C(C(=O)O)c3ccccc3)C(=O)N2[C@H]1C(=O)O (stereo partly shown) [Carbenicillin] | No | No Inhibition
